Results reported in publication PMC8143083, “Effective Activation of BKCa Channels by QO-40 (5-(Chloromethyl)-3-(Naphthalen-1-yl)-2-(Trifluoromethyl)Pyrazolo [1,5-a]pyrimidin-7(4H)-one), Known to Be an Opener of KCNQ2/Q3 Channels” (Pharmaceuticals, 2021).

Biological target: T1, α-hSlo (BKCa channel α-subunit) (Homo sapiens, UniProt Q12791)
T1 construct: gene KCNMA1; α-hSlo expressed in HEK293T cells
Assay: patch clamp of α-hSlo-expressing HEK293T cells (Figure S1)
Format: cell-based

T1 sequence (Q12791 whole entry): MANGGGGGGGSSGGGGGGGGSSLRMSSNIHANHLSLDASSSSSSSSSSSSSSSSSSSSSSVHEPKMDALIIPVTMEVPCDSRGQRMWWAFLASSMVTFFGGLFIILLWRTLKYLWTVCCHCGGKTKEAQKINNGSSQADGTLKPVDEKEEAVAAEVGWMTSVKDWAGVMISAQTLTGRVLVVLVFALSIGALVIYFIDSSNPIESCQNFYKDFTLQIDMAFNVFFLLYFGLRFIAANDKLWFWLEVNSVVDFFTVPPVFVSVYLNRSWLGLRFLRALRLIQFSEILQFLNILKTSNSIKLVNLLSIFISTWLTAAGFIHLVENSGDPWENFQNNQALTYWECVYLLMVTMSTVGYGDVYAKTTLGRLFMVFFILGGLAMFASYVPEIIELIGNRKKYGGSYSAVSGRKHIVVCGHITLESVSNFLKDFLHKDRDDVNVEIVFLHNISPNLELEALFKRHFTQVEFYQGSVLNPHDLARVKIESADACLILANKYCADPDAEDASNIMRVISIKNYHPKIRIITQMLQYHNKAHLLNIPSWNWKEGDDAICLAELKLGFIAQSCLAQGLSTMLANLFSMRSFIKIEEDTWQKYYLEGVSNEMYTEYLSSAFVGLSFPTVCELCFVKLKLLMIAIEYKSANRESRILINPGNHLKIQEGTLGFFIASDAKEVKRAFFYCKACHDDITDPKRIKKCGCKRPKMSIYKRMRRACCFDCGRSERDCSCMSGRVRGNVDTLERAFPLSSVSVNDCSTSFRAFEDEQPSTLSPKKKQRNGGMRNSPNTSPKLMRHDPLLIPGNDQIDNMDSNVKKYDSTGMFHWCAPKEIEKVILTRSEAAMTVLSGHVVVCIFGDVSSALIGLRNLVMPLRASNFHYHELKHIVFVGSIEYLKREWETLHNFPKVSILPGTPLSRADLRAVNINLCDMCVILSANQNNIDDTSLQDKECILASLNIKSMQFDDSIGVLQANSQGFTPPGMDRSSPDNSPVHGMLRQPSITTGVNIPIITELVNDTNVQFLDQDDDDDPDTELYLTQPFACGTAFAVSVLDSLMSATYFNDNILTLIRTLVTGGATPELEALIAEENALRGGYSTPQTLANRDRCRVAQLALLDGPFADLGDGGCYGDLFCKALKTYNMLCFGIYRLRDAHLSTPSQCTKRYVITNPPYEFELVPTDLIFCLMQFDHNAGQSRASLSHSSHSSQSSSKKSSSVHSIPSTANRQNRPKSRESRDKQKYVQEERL

O=c1cc(CCl)nc2c(-c3cccc4ccccc34)c(C(F)(F)F)[nH]n12 [QO-40, 5-(chloromethyl)-3-(naphthalen-1-yl)-2-(trifluoromethyl)pyrazolo[1,5-a]pyrimidin-7(4H)-one]
patch clamp of α-hSlo-expressing HEK293T cells (Figure S1): In HEK293T cells expressing α-hSlo, QO-40 stimulated BKCa channel activity.
